Columns and labels:
[1] = Blood levels of L-dopa after intravenous administration of drugs (rats); format: in vivo, SD-strain male rats
Procedure: FIG. 7 illustrates change with time of a blood level of L-dopa in intravenously administering Compound A (o) and L-dopa (.cndot.) to rats.
Measuring blood levels of L-dopa after intravenous administration of drugs (rats)
Seven to eight week-old SD-strain male rats (n=3) were previously fasted for 18 hours. Twenty milligrams of L-dopa as a control drug or the equimolar amount of Compound A was dissolved in a concentration of 10 mg/ml in a physiolosical saline containing 50% propylene glycol, and the resulting solution was intravenously administered to the rats at a dose of 10 mg eq./kg, calculated as L-dopa. Immediately after administration, or 5, 15, 30, 45, 60, 90, 120, 150, 180 or 240 minutes after administration, 120 μl of blood was collected through a carotid cannula intubated in advance three days before the test using a heparin-treated glass capillary. The blood was treated as in Test Example 1 and then measured for blood levels of L-dopa.

[2] = Concentrations of L-dopa in the lumen and tissue of the small intestine by an in situ ligating loop method (rats); format: in vivo, male rats; details: jejunal loop, with 0.4 mg carbidopa
From the text: FIG. 8 illustrates change with time of amounts of Compound A (Δ) and L-dopa (o) after injection of Compound A, and amount of L-dopa (.cndot.) after injection of L-dopa in the lumen of the small intestine of rats according to an in situ ligating loop method.
FIG. 9 illustrates change with time of amounts of Compound A (Δ) and L-dopa (o) after injection of Compound A, and amount of L-dopa (.cndot.) after injection of L-dopa in the tissue of the small intestine of rats according to an in situ ligating loop method.
Measuring concentrations of L-dopa in the lumen and tissue of the small intestine by an in situ ligating loop method (rats)
Eight week-old male rats (n=3) were fasted overnight before the test, and then under ether anesthesia, were incised at the abdomen. An acute loop of 8 cm length was ligated in the jejunum. Compound A (1.47 mg) or 1.00 mg of L-dopa as a control drug was suspended in 0.5 ml of 0.5% sodium carboxymethylcellulose together with 0.4 mg of carbidopa, and the suspension was injected into the loop. The loop was returned in the abdominal cabity and the cut portion was then sewn. After a fixed time, the loop was taken out again and the content in the loop was well washed with a ice-cooled physiological saline. […] In the resulting solutions, the concentration of L-dopa was determined as in Test Example 1 and the concentration of Compound A as follows, respectively. […]

[3] = Acute toxicity, oral administration (mice); format: in vivo, ddY-strain male mice; details: mortality up to 1 week; for LD50 at 168 h: mouse, in vivo
From the text: Each of the test drugs was suspended in a 0.5% sodium carboxymethylcellulose solution containing 0.1% Tween 80 and orally administered to each of ddY-strain male mice (body weight 24 to 31 g, n=5), and a mortality up to 1 week after administration was observed. Toxicity of test compounds (Compounds A and B) was extremely low. The LD50 value was 6 g/kg or more in both cases.

[4] = Acute toxicity, intraperitoneal administration (mice); format: in vivo, ddY-strain male mice; details: for mortality: up to 1 week, n=5
From the text: (2) Intraperitoneal administration
Each of the test drugs was suspended in a sterilized physiological saline and intraperitoneally administered to ddY-strain male mice (body weight 24 to 29 g, n=5), and a mortality up to 1 week after administration was observed.

[5] = cited from earlier work
[6] = concluded from conversion to L-dopa

| SMILES | hydrolysis to L-dopa in the systemic circulation ([1]; 10 mg eq./kg as L-dopa) | conversion ratio to L-dopa ([1]; 10 mg eq./kg as L-dopa, estimated) | bioavailability [1, 6] | toxicity [1, 6] | amount of L-dopa in the lumen (washing liquid) and tissue (homogenate) of the small intestine ([2]; 1.47 mg Compound A vs 1.00 mg L-dopa) | concentration of L-dopa in the lumen and tissue of the small intestine [2] | toxicity [3] | LD50 at 168 h [3] [mg/kg] | mortality ([4]; 1800 mg/kg) | toxicity ([4]; mortality up to 1 week) | mortality ([4]; 1250 mg/kg) | blood level of L-dopa ([5]; human, in vivo) | appearance of dyskinesias after administration of L-dopa ([5]; patients, chronic L-dopa therapy) [h] | elimination of L-dopa from blood ([5]; patients) |
| --- | --- | --- | --- | --- | --- | --- | --- | --- | --- | --- | --- | --- | --- | --- |
| CC(C)(C)C(=O)Oc1ccc(C[C@H](N)C(=O)O)cc1O [Compound A, 4-O-pivaloyl-L-dopa] | rapidly and completely hydrolyzed to L-dopa | about 100% | high bioavailability | low toxicity | retained for a longer time with less fluctuation than that after administration of L-dopa | kept low | extremely low | ≥ 6000 | no case of death was observed | very low | – | – | – | – |
| CC1(C(=O)Oc2ccc(C[C@H](N)C(=O)O)cc2O)CC1 [Compound B, 4-O-(1-methylcyclopropanecarbonyl)-L-dopa] | – | – | – | – | – | – | extremely low | ≥ 6000 | – | – | – | – | – | – |
| N[C@@H](Cc1ccc(O)c(O)c1)C(=O)O [L-dopa] | – | – | – | – | – | – | – | 3200 | all the test mice were dead | – | two of five mice were dead | rapidly increases and falls | 1 to 2 | rapid elimination |

From patent publication US4966915A, “L-dopa derivatives or their acid addition salts, process for producing same and their use” (priority 1987, dated 1990)
